Measured values from ChEMBL document CHEMBL1143809, “New bis-N9-(methylphenylmethyl)purine derivatives: synthesis and antitumor activity” (2007).

What was measured:
Format in all cases: functional
[1] = system: MDA-MB-435; experiment: Growth inhibition of human MDA-MB-435 cells after 48 hrs by SRB protein assay; conditions: MDA-MB-435, 48 h
[2] = system: SK-MEL-2; experiment: Growth inhibition of human SK-MEL-2 cells after 48 hrs by SRB protein assay; conditions: SK-MEL-2, 48 h
[3] = system: NCI-H460; experiment: Anticancer activity against human NCL-H460 cells assessed as growth at 100 uM after 48 hrs by SRB protein assay relative to control; conditions: NCI-H460, 48 h, read-out: Activity
[4] = system: U-251; experiment: Growth inhibition of human U251 cells after 48 hrs by SRB protein assay; conditions: U-251, 48 h
[5] = system: EKVX; experiment: Growth inhibition of human EKVX cells after 48 hrs by SRB protein assay
[6] = system: BT-549; experiment: Growth inhibition of human BT549 cells after 48 hrs by SRB protein assay; conditions: BT-549, 48 h
[7] = system: HOP-92; experiment: Growth inhibition of human HOP92 cells after 48 hrs by SRB protein assay; conditions: HOP-92, 48 h
[8] = system: SF-539; experiment: Growth inhibition of human SF539 cells after 48 hrs by SRB protein assay; conditions: SF-539, 48 h
[9] = system: UACC-257; experiment: Growth inhibition of human UACC257 cells after 48 hrs by SRB protein assay; conditions: UACC-257, 48 h
[10] = system: SNB-75; experiment: Growth inhibition of human SNB75 cells after 48 hrs by SRB protein assay; conditions: SNB-75, 48 h
[11] = system: CAKI-1; experiment: Growth inhibition of human CAKI1 cells after 48 hrs by SRB protein assay; conditions: CAKI-1, 48 h
[12] = system: A498; experiment: Growth inhibition of human A498 cells after 48 hrs by SRB protein assay; conditions: A498, 48 h
[13] = system: SK-MEL-5; experiment: Growth inhibition of human SK-MEL-5 cells after 48 hrs by SRB protein assay; conditions: SK-MEL-5, 48 h
[14] = system: IGROV-1; experiment: Growth inhibition of human IGROV1 cells after 48 hrs by SRB protein assay; conditions: IGROV-1, 48 h
[15] = Growth inhibition of human NCL-H226 cells after 48 hrs by SRB protein assay; conditions: NCL-H226, 48 h
[16] = Growth inhibition of human NCL-H522 cells after 48 hrs by SRB protein assay; conditions: NCL-H522, 48 h
[17] = system: Hs-578T; experiment: Growth inhibition of human HS578T cells after 48 hrs by SRB protein assay
[18] = Growth inhibition of human LOX MIVI cells after 48 hrs by SRB protein assay
[19] = system: HOP-62; experiment: Growth inhibition of human HOP62 cells after 48 hrs by SRB protein assay; conditions: HOP-62, 48 h
[20] = system: T47D; experiment: Growth inhibition of human T47D cells after 48 hrs by SRB protein assay
[21] = system: HT-29; experiment: Growth inhibition of human HT29 cells after 48 hrs by SRB protein assay; conditions: HT-29, 48 h
[22] = system: CCRF-CEM; experiment: Growth inhibition of human CCRF-CEM cells after 48 hrs by SRB protein assay
[23] = system: MOLT-4; experiment: Growth inhibition of human MOLT4 cells after 48 hrs by SRB protein assay; conditions: MOLT-4, 48 h
[24] = system: COLO 205; experiment: Growth inhibition of human COLO205 cells after 48 hrs by SRB protein assay; conditions: COLO 205, 48 h
[25] = system: SF-295; experiment: Growth inhibition of human SF295 cells after 48 hrs by SRB protein assay; conditions: SF-295, 48 h
[26] = system: HCC 2998; experiment: Growth inhibition of human HCC2998 cells after 48 hrs by SRB protein assay; conditions: HCC 2998, 48 h
[27] = system: RPMI-8226; experiment: Growth inhibition of human RPMI8226 cells after 48 hrs by SRB protein assay; conditions: RPMI-8226, 48 h
[28] = system: HCT-116; experiment: Growth inhibition of human HCT116 cells after 48 hrs by SRB protein assay; conditions: HCT-116, 48 h
[29] = Growth inhibition of human NCL-H23 cells after 48 hrs by SRB protein assay; conditions: NCL-H23, 48 h
[30] = system: SN12C; experiment: Growth inhibition of human SN12C cells after 48 hrs by SRB protein assay
[31] = Growth inhibition of human NCL-H322M cells after 48 hrs by SRB protein assay
[32] = system: UACC-62; experiment: Growth inhibition of human UACC62 cells after 48 hrs by SRB protein assay; conditions: UACC-62, 48 h
[33] = system: K562; experiment: Growth inhibition of human K562 cells after 48 hrs by SRB protein assay; conditions: K562, 48 h
[34] = read-out: LC50 (the source's name)

With `Clc1nc(Cl)c2ncn(Cc3ccccc3Cn3cnc4c(Cl)nc(Cl)nc43)c2n1` the GI50 [1] was 2.4 µM, the LC50 [1] was 17.4 µM and the TGI [1] was 5.5 µM. For the same compound, the GI50 [2] was 6.31 µM, the TGI [2] was 26.9 µM and the CC50 [2, 34] was over 100 µM. It also gave a growth at 100 µM [3] of 0%, a GI50 [4] of 1.78 µM and a TGI [4] of 3.55 µM. The CC50 [4, 34] was 69.2 µM, the GI50 [5] was 1.02 µM and the LC50 [5] was 6.76 µM. It also gave a TGI [5] of 2.63 µM, a GI50 [6] of 0.17 µM and a TGI [6] of 1.51 µM. The CC50 [6, 34] was 5.01 µM, the GI50 [7] was 1.91 µM and the LC50 [7] was 9.12 µM. It also gave a TGI [7] of 4.17 µM, an LC50 [8] of 0.49 µM and a TGI [8] of 0.14 µM. It also gave a GI50 [9] of 7.94 µM, a TGI [9] of 23.4 µM and a CC50 [9, 34] of 61.7 µM. It also gave a GI50 [10] of 5.13 µM, a TGI [10] of 21.9 µM and a CC50 [10, 34] of 81.3 µM. For the same compound, the GI50 [11] was 1.73 µM, the TGI [11] was 3.09 µM and the CC50 [11, 34] was 5.62 µM. The GI50 [12] was 17 µM, the TGI [12] was 33.9 µM and the CC50 [12, 34] was 67.6 µM. For the same compound, the GI50 [13] was 2.24 µM, the LC50 [13] was 22.9 µM and the TGI [13] was 6.17 µM. The GI50 [14] was 5.25 µM, the LC50 (50% lethal concentration) [14] was 57.5 µM and the TGI [14] was 17.8 µM. For the same compound, the GI50 [15] was 3.09 µM, the LC50 [15] was 26.9 µM and the TGI [15] was 7.24 µM. The GI50 [16] was 3.39 µM, the LC50 [16] was over 100 µM and the TGI [16] was 9.12 µM. The GI50 [17] was 3.09 µM, the LC50 (concentration killing 50% of cells) [17] was over 100 µM and the TGI [17] was 11.2 µM. The GI50 [18] was 1.15 µM, the LC50 [18] was 6.61 µM and the TGI [18] was 2.75 µM. It also gave a GI50 [19] of 21.9 µM, an LC50 [19] of 72.4 µM and a TGI [19] of 39.8 µM. The GI50 [20] was 2.19 µM, the LC50 [20] was over 100 µM and the TGI [20] was 5.89 µM. The GI50 [21] was 3.31 µM, the LC50 [21] was over 100 µM and the TGI [21] was over 100 µM. For the same compound, the GI50 [22] was 1.41 µM, the TGI [22] was 3.09 µM and the CC50 [22, 34] was 6.61 µM. The GI50 [23] was 1.66 µM, the LC50 [23] was 8.13 µM and the TGI [23] was 3.63 µM. The GI50 [24] was 3.16 µM, the LC50 [24] was over 100 µM and the TGI [24] was over 100 µM. For the same compound, the GI50 [25] was 15.1 µM, the LC50 [25] was 57.3 µM and the TGI [25] was 28.2 µM. The LC50 [26] was 21.4 µM, the TGI [26] was 4.9 µM and the GI50 [27] was 0.55 µM. For the same compound, the TGI [27] was 2.34 µM, the GI50 [28] was 3.31 µM and the TGI [28] was 13.8 µM. It also gave a CC50 [28, 34] of over 100 µM, a GI50 [29] of 15.5 µM and an LC50 [29] of 67.6 µM. It also gave a TGI [29] of 32.4 µM, a GI50 [30] of 2.51 µM and an LC50 [30] of 26.9 µM. It also gave a TGI [30] of 6.61 µM, a GI50 [31] of 14.5 µM and a TGI [31] of 27.5 µM. For the same compound, the CC50 [31, 34] was 52.5 µM, the GI50 [32] was 1.74 µM and the LC50 (concentration killing 50% of cells) [32] was 6.61 µM. For the same compound, the TGI [32] was 3.39 µM, the GI50 [33] was 1.95 µM and the TGI [33] was 4.47 µM. It also gave a CC50 [33, 34] of 15.5 µM.
